Data taken from patent publication US10526316B2, “Quinoxaline and pyridopyrazine derivatives as PI3Kβ inhibitors” (Janssen Pharmaceutica NV, priority 2015, dated 2020).

Key:
PI3Kβ = target: T1, PI3Kβ (Homo sapiens, UniProt P42338); test: Enzyme binding assay (KINOMEscan, DiscoveRx); conditions: PIK3Cβ_h, read-out: Kd PIK3Cβ_h
T1 construct: purchased DiscoveRx Corporation, San Diego (contract service, KINOMEscan)
Procedure: (§1) Enzyme Binding Assays (KINOMEscan®)
Kinase enzyme binding affinities of compounds disclosed herein were determined using the KINOMEscan technology performed by DiscoveRx Corporation, San Diego, Calif., USA (www.kinomescan.com). Table A reports the obtained Kd values (nM), with the Kd being the inhibitor binding constant: […]

PI3Kδ = target: T2, PI3Kδ (Homo sapiens, UniProt O00329); test: Enzyme binding assay (KINOMEscan, DiscoveRx); conditions: PIK3Cδ_h
T2 construct: purchased DiscoveRx Corporation, San Diego (contract service, KINOMEscan)
T2 sequence (O00329 1-1044): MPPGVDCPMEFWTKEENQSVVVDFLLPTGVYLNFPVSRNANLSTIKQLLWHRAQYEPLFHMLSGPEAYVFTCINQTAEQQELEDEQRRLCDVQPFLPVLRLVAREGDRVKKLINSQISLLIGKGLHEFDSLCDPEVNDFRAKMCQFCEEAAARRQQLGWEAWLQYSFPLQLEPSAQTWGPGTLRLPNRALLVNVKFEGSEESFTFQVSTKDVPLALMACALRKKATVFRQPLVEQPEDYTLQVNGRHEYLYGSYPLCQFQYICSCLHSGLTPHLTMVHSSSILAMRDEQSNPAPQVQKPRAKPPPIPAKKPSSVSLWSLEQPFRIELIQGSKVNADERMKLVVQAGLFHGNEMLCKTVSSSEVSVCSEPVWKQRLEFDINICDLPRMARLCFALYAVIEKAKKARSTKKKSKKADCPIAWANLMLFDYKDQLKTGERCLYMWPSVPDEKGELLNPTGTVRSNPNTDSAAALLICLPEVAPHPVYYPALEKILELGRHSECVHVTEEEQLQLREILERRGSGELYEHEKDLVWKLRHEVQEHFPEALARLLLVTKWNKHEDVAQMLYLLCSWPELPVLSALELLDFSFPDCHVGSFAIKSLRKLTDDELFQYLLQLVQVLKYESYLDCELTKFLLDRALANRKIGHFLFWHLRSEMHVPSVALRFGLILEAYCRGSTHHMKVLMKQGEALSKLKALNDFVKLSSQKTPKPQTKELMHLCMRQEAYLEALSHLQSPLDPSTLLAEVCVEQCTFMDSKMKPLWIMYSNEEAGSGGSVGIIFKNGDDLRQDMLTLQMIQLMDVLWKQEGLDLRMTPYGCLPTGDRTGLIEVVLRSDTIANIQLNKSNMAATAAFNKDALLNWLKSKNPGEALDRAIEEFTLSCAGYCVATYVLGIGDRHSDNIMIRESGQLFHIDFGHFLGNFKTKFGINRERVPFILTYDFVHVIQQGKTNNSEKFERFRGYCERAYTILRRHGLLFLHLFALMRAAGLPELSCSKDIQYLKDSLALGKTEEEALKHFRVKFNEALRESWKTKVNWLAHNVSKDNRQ
Procedure: as §1
(§2) Kinase enzyme binding affinities of compounds disclosed herein were determined using the KINOMEscan technology performed by DiscoveRx Corporation, San Diego, Calif., USA (www.kinomescan.com).

kinase enzymes [1] = target: T3, kinase enzymes (Homo sapiens, UniProt P42336); test: Enzyme binding assay (KINOMEscan, DiscoveRx), further kinases of Table A; conditions: PIK3Cα_h
T3 construct: purchased DiscoveRx Corporation, San Diego (contract service, KINOMEscan)
T3 sequence (P42336 whole entry): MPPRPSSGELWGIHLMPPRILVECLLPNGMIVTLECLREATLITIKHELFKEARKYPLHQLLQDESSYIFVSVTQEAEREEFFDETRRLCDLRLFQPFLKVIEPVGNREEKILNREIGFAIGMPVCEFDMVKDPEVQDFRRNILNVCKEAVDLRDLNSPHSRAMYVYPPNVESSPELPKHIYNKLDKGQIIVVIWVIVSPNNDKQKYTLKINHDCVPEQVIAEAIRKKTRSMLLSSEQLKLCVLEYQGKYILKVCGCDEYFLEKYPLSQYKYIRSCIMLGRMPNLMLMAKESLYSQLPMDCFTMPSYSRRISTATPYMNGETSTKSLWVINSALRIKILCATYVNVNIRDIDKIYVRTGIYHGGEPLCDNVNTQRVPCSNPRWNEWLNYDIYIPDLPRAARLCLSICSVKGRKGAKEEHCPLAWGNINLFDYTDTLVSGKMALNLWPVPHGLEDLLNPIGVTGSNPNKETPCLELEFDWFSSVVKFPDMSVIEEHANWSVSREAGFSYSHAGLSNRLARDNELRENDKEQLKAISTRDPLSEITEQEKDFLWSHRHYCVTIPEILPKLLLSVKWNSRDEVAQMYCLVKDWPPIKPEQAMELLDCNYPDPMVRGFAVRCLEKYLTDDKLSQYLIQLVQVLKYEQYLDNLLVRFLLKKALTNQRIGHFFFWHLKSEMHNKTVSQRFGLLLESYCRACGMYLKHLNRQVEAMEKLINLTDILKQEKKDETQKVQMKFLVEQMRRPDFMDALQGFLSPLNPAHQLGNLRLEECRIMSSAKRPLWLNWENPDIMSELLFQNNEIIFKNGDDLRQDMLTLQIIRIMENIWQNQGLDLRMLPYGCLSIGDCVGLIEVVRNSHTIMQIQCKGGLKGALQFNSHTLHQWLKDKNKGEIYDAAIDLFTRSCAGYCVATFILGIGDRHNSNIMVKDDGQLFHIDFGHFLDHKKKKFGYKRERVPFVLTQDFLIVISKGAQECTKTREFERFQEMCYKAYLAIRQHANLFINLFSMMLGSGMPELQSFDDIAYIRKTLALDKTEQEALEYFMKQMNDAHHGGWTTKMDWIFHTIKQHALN
Procedure: as §1, §2

kinase enzymes [2] = target: T4, kinase enzymes (Homo sapiens, UniProt P42345); test: as above; conditions: MTOR_h
T4 construct: purchased DiscoveRx Corporation, San Diego (contract service, KINOMEscan)
Procedure: as §1, §2

kinase enzymes [3] = target: T5, kinase enzymes (Homo sapiens, UniProt P48736); test: as above; conditions: PIK3Cγ_h
T5 construct: purchased DiscoveRx Corporation, San Diego (contract service, KINOMEscan)
T5 sequence (P48736 whole entry): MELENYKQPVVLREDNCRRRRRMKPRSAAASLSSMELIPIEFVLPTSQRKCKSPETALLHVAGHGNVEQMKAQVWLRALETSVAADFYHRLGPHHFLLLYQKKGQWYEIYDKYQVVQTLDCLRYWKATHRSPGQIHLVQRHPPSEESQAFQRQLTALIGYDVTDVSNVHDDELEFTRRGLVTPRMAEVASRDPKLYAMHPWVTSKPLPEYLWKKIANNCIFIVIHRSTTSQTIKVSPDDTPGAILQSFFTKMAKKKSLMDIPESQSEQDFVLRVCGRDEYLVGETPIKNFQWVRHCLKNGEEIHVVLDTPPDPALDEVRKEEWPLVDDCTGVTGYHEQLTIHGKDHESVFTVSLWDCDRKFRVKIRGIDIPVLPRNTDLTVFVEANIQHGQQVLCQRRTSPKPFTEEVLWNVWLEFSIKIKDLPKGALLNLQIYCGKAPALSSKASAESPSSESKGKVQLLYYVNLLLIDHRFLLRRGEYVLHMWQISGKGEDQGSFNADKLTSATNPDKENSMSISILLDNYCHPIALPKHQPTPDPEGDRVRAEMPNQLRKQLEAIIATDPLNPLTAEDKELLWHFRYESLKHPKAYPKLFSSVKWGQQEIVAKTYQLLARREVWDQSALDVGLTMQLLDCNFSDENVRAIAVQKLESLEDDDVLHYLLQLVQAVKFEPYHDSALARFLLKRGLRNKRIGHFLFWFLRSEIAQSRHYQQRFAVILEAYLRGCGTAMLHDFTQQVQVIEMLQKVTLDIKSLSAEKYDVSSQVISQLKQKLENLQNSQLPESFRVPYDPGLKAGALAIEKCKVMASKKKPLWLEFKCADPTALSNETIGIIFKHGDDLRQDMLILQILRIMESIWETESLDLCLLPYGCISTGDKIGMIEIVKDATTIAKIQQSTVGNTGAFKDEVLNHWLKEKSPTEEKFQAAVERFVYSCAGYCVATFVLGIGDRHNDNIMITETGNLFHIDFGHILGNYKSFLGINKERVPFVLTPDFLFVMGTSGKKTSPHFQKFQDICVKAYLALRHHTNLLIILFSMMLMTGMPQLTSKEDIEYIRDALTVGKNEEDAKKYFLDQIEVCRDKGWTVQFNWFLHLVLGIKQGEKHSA
Procedure: as §1, §2

T1 sequence (P42338 whole entry): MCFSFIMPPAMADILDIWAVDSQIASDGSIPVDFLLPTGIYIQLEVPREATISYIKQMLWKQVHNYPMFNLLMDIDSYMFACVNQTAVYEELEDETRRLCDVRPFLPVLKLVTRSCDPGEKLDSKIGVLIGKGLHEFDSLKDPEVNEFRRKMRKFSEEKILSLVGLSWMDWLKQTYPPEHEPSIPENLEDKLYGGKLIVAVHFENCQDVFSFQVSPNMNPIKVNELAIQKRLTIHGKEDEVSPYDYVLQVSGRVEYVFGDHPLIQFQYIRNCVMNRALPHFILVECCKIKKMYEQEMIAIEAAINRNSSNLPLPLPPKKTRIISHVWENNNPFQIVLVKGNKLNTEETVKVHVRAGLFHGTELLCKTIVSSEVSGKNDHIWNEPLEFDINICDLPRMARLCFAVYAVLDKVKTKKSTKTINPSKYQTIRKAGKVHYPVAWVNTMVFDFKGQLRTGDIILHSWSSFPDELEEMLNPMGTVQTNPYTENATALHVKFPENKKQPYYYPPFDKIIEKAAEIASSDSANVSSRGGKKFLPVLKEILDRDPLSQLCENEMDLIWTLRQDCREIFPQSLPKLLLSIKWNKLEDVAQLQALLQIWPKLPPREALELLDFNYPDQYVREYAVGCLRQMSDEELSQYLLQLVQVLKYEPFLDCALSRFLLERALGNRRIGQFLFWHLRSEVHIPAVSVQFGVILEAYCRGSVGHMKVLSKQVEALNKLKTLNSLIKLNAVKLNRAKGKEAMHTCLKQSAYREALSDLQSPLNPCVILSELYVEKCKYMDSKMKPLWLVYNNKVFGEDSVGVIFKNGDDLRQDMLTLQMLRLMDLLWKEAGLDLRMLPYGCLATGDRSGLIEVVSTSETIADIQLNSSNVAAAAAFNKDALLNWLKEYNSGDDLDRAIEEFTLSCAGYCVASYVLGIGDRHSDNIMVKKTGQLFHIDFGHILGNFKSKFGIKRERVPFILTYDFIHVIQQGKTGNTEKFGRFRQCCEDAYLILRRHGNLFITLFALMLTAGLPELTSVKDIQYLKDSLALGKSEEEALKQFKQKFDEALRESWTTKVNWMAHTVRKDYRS

| Structure (SMILES) | Kd (PI3Kβ) [µM] | Kd (PI3Kδ) [µM] | Kd (kinase enzymes [1]) [µM] | Kd (kinase enzymes [2]) [µM] | Kd (kinase enzymes [3]) [µM] |
| --- | --- | --- | --- | --- | --- |
| O=C(c1cc(NCc2cc(F)cc(F)c2)c2nc(N3CCOCC3)cnc2c1)N1CCCNCC1 [Compound 351] | 0.021 | 1.7 | 2.51 | > 30.2 | 2.14 |
| CC(Oc1ccc(F)c(F)c1)c1cc(C(=O)N2CC[C@H](N(C)C)C2)cc2ncc(N3CCOCC3)nc12 (single isomer, unassigned) [Compound 363b] | 1.29 | 17 | 31.6 | 27.5 | > 30.2 |
| CN(Cc1cc(F)cc(F)c1)c1cc(C(=O)N2CCNC(C(F)(F)F)C2)cc2ncc(N3CCOCC3)nc12 (single isomer, unassigned) [Compound 319a] | 0.2 | 2.82 | 9.12 | > 30.2 | > 30.2 |
| CC(Nc1ccc(F)c(F)c1)c1cc(C(=O)N2CC[C@@H](O)C2)cc2ncc(N3CCOCC3)nc12 (single isomer, unassigned) [Compound 300b] | 0.537 | 23.4 | 24 | > 30.2 | > 30.2 |
| CC(C)NCCNC(=O)c1cc(NCc2cc(F)cc(F)c2)c2nc(N3CCOCC3)cnc2c1 [Compound 342] | 0.009 | 1 | 3.8 | 16.6 | 26.9 |
| CN[C@H]1CCN(C(=O)c2cc(C(C)Nc3ccc(F)c(F)c3)c3nc(N4CCOCC4)cnc3c2)C1 (single isomer, unassigned) [Compound 365b] | 0.251 | 4.17 | 15.5 | > 30.2 | 22.9 |
| CN(Cc1cc(F)cc(F)c1)c1cc(C(=O)O)cc2ncc(N3CCOCC3)nc12 [Compound 291] | 0.407 | 2.82 | 0.55 | 10.2 | 0.513 |

The remaining lines, values ahead:

| Kd (PI3Kβ) [µM] | Kd (PI3Kδ) [µM] | Kd (kinase enzymes [1]) [µM] | Kd (kinase enzymes [2]) [µM] | Kd (kinase enzymes [3]) [µM] | Structure (SMILES) |
| --- | --- | --- | --- | --- | --- |
| 19.5 | > 30.2 | > 30.2 | > 30.2 | > 30.2 | O=C(NCCO)c1cc(N2CCC2c2ccc(F)cc2)c2nc(N3CCOCC3)cnc2c1 (single isomer, unassigned) [Compound 391b] |
| 0.933 | > 30.2 | > 30.2 | > 30.2 | > 30.2 | CC(Nc1cc(F)c(F)c(F)c1)c1cc(C(=O)N2CCCN(C(C)C)CC2)cc2ncc(N3CCOCC3)nc12 (single isomer, unassigned) [Compound 388a] |
| 1.26 | > 30.2 | > 30.2 | > 30.2 | > 30.2 | CNCCN(C)C(=O)c1cc(C(C)Oc2cc(F)c(F)c(F)c2)c2nc(N3CCOCC3)cnc2c1 (single isomer, unassigned) [Compound 379b] |
| 1.05 | 7.24 | 9.12 | 19.1 | – | CNCCNC(=O)c1cc(C(C)Oc2ccc(Cl)c(F)c2)c2nc(N3CCOCC3)cnc2c1 (stereo not shown) [Compound 380a] |
| 10.7 | > 30.2 | > 30.2 | 17 | > 30.2 | O=C(NCCO)c1cc(N2CCC2c2ccc(F)cc2)c2nc(N3CCOCC3)cnc2c1 (single isomer, unassigned) [Compound 391a] |
| 0.078 | 3.24 | 16.6 | > 30.2 | 22.4 | CC(C)NCCN(C)C(=O)c1cc(N(C)Cc2cc(F)cc(F)c2)c2nc(N3CCOCC3)cnc2c1 [Compound 390] |
